# Measurements from patent US10781209B2, “1H-pyrrolo[2,3-c]pyridin-7(6H)-ones and pyrazolo[3,4-c]pyridin-7(6H)-ones as inhibitors of BET proteins” (Incyte Corporation, priority 2014, dated 2020).
# pIC50: −log10 of the molar value.
# Tested on: KMS.12.BM cells
# Test: KMS.12.BM cell viability assay (Cell Titer-GLO, ATP quantitation)
# Format: cell-based
# Conditions: 72 h, human myeloma cell line, 3 days, concentration required for 50% cell death
# Experimental: KMS.12.BM cell line (human myeloma) was purchased from JCRB (Osaka, Japan) and maintained in RPMI with 10% FBS culture medium. To measure the cytotoxic activity of the compounds through ATP quantitation, the KMS.12.BM cells are plated in the RPMI culture medium at 5000 cells/well/per 100 μL into a 96-well polystyrene clear black tissue culture plate (Greiner-bio-one through VWR, NJ), in the presence or absence of a concentration range of test compounds. After 3 days, […] Cell Titer-GLO Luminescent (Promega, Madison, Wis.) cell culture agent is added to each well for 10 minutes at room temperature to stabilize the luminescent signal. This determines the number of viable cells in culture based on quantitation of the ATP present, which signals the presence of metabolically active cells. Luminescence is measured with the Top Count 384 (Packard Bioscience through Perkin Elmer, Boston, Mass.). Compound inhibition is determined relative to cells cultured with no drug and the IC50 is reported as the compound concentration required for 50% cell death.
compound,measurement,value
"Cn1cc(-c2cccc3c2OC(c2ccccn2)C(=O)N3)c2cc[nH]c2c1=O (stereo not shown) [Example 5, 8-(6-methyl-7-oxo-6,7-dihydro-1H-pyrrolo[2,3-c]pyridin-4-yl)-2-pyridin-2-yl-2H-1,4-benzoxazin-3(4H)-one 2,2,2-trifluoroacetate]",pIC50,≥ 6.00
